Measurements: ChEMBL document CHEMBL4251568, “A routinely used protein staining dye acts as an inhibitor of wild type and mutant alpha-synuclein aggregation and modulator of neurotoxicity” (Eur J Med Chem, 2018)

Experiments:
[1] = Cytotoxicity against human SH-SY5Y cells assessed as cell viability after 24 hrs by MTT assay; format: cell-based; settings: read-out: Activity
[2] = test system: SH-SY5Y; assay: Cytotoxicity against human SH-SY5Y cells assessed as cell viability after 24 hrs by LDH release assay; format: cell-based

## CCOc1ccc(Nc2ccc(/C(=C3C=C/C(=[N+](/CC)Cc4cccc(S(=O)(=O)[O-])c4)C=C/3C)c3ccc(N(CC)Cc4cccc(S(=O)(=O)[O-])c4)cc3C)cc2)cc1.[Na+] [BRILLIANT BLUE G]
[1]
  viability at 24 h: 19%
[2]
  Activity: Toxic

## CCOc1ccc(Nc2ccc(C(=C3C=CC(=[N+](CC)Cc4cccc(S(=O)(=O)[O-])c4)C=C3)c3ccc(N(CC)Cc4cccc(S(=O)(=O)[O-])c4)cc3)cc2)cc1.[Na+]
[1]
  viability at 24 h: 99%
[2]
  Activity: Non-Toxic
